Source: PubChem BioAssay (NCI)
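Growth conditions: 96-well plates. Treatment: test compound, 48 hours, 5 concentrations. Analysis: linear interpolation between bracketing concentrations; unreached endpoints set to highest concentration. Here, GI50 denotes the concentration required for 50% inhibition of growth. The concentration for full growth arrest is given as TGI.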

How the values were obtained:
Assay in all cases: inhibition of tumour cell growth, NCI panel, 48 h
HCT-116 colon = test system: HCT-116 colon
MCF7 breast = test system: MCF7 breast
HCC-2998 colon = test system: HCC-2998 colon
HL-60(TB) leukemia = test system: HL-60(TB) leukemia
CCRF-CEM leukemia = test system: CCRF-CEM leukemia
COLO 205 colon = test system: COLO 205 colon
U251 CNS = test system: U251 CNS
T-47D breast = test system: T-47D breast
MALME-3M melanoma = test system: MALME-3M melanoma
NCI-H226 lung = test system: NCI-H226 lung

Structure (SMILES)	GI50 (HCT-116 colon) [µM]	TGI (HCT-116 colon) [µM]	GI50 (MCF7 breast) [µM]	TGI (MCF7 breast) [µM]	GI50 (HCC-2998 colon) [µM]	TGI (HCC-2998 colon) [µM]	GI50 (HL-60(TB) leukemia) [µM]	TGI (HL-60(TB) leukemia) [µM]	GI50 (CCRF-CEM leukemia) [µM]	TGI (CCRF-CEM leukemia) [µM]	GI50 (COLO 205 colon) [µM]	TGI (COLO 205 colon) [µM]	GI50 (U251 CNS) [µM]	TGI (U251 CNS) [µM]	GI50 (T-47D breast) [µM]	TGI (T-47D breast) [µM]	GI50 (MALME-3M melanoma) [µM]	TGI (MALME-3M melanoma) [µM]	GI50 (NCI-H226 lung) [µM]	TGI (NCI-H226 lung) [µM]
CC(=O)[C@H]1CCC/C=C/[C@@H]2C[C@H](O)C[C@H]2[C@H](O)/C=C/C(=O)O1	0.337	1.18	0.363	5.81	1.33	5.07	0.261	0.712	0.395	> 62.7	0.264	0.631	0.913	> 100	1.17	3.63	0.27	3.4	0.976	2.28
Cc1cc(-c2cc(O)ccc2Cl)cc2nnc(Nc3ccc(OCCN4CCCC4)cc3)nc12	0.18	0.341	0.179	0.356	1.94	3.66	0.305	0.627	0.242	0.634	2.08	4.29	0.194	0.372	1.66	3.95	0.19	0.426	4.71	7.12
COc1cc(C2c3cc4c(cc3C(OC(=O)C[n+]3ccccc3)C3COC(=O)C23)OCO4)cc(OC)c1OC (stereo not given)	< 0.0181	> 100	< 0.014	> 100	< 0.0174	> 20.9	< 0.0156	< 0.0287	< 0.0205	> 100	< 0.0137	< 0.0203	< 0.021	> 100	41.2	> 100	> 100	> 100	< 0.01	> 100
C#CCN(c1ccc(C(=O)N[C@@H](CCC(=O)N[C@H](CCC(=O)O)C(=O)O)C(=O)O)cc1)C1CCc2cc3nc(CO)[nH]c(=O)c3cc21 (stereo not given in full)	7.53	> 100	0.899	> 100	1.32	> 100	> 58.5	> 100	> 36.3	> 100	13.8	> 100	> 78.4	> 100	> 67	> 100	> 100	> 100	> 100	> 100
Clc1ccccc1-c1nnc2c(Cc3ccccc3)nc3ccccc3n12	3.79	> 100	34	> 100	59.9	> 100	32.5	> 100	7.11	> 100	> 29.6	> 100	4.21	> 100	5.77	> 100	33	> 100	6.91	> 100
